Patent US20190298621A1, “METHODS OF TREATMENT OF THE DENTAL PULP AND FILLING ROOT CANALS USING ANTI INFLAMMATORY RINSE SOLUTION AND FILLING COMPOSITION” (DENTSPLY SIRONA Inc., priority 2018, published 2019)

Test: Anti-inflammatory agent solubility in solvents
Format: physicochemical
Settings: for Solvent (anti-inflammatory agent solubility in solvents): solvent in which the agent is miscible, ambient conditions
Experimental: An anti-inflammatory rinse solution was prepared by mixing anti-inflammatory agent in a solvent in which they are miscible in a vial under ambient conditions as shown in Table 2.

SMILES | Solvent (anti-inflammatory agent solubility in solvents) | solubility in water
O=C(/C=C/c1ccccc1)c1ccccc1 [Chalcone] | Ethanol | 
CC(C)Cc1ccc(C(C)C(=O)O)cc1 (stereo not shown) [Ibuprofen] |  | partially soluble in water
C=CCc1ccc(O)c(OC)c1 [Eugenol] | Ethanol | partially soluble in water

More lines, now with the values ahead:

Solvent (anti-inflammatory agent solubility in solvents) | solubility in water | SMILES
Water |  | OC[C@@H](O)[C@H](O)[C@@H](O)CO [Xylitol]
Ethanol | insoluble in water | Cc1c(C)c2c(c(C)c1O)CC[C@@](C)(CCC[C@H](C)CCC[C@H](C)CCCC(C)C)O2 [Vitamin E, α-tocopherol]
